Measured values published in patent publication US20100216779A1 (GLAXOSMITHKLINE LLC, priority 2007, published 2010).

Test system: various cell lines of different tumor origins
Test: Inhibition of cell proliferation, InCell Analyzer assay
Format: cell-based
Protocol: C. Inhibition of Cell Proliferation
For InCell Analyser assay, various cell lines of different tumor origins were grown to 70-80% confluency in appropriate culture media containing 10% fetal bovine serum at 37° C. in a 5% CO2 incubator. On day-1, cells were seeded at 2 densities in 384-well plates and incubated at 37° C. overnight. Stock compound plates were prepared in advance which contained dimethyl sulfoxide (DMSO) alone and a 9-point half-log decreasing dose range of the compound of Example 22 in DMSO. The compound plates were stored at −80° C. and each plate was only thawed once and used. On day 0, the main assay plates received compound or DMSO via a sonic delivery system (ECHO). The highest final concentration of compound of the dose range in the culture plates was 10 uM. These plates were cultured at 37° C. for 3 days. […] On day 3, the compound treated plates were stained and fixed to measure proliferation, apoptosis, and mitotic index using an InCell1000 analyser. A nuclear stain was used to identify cells in the wells. By counting the number of nuclei, the proliferation index of compound treated groups were calculated as a percentage relative to the DMSO control, which was set to 100%. The IC50 values were calculated using model 205 in ExcelFit.

Measured: IC50

COc1cc(N2CCC(N3CCCCC3)CC2)ccc1Nc1nccc(-c2c(-c3cccc(C(=O)Nc4c(F)cccc4F)c3)nc3ccccn23)n1 [Example 22, 3-[3-(2-{[4-(1,4′-bipiperidin-1′-yl)-2-(methyloxy)phenyl]amino}-4-pyrimidinyl)imidazo[1,2-a]pyridin-2-yl]-N-(2,6-difluorophenyl)benzamide]
> 5 µM: Homo sapiens, SW684, SW684, Sarcoma | Homo sapiens, SW780, SW780, Bladder | Homo sapiens, SW837, SW837, Colon | Homo sapiens, SW948, SW948, Colon | Homo sapiens, SW982, SW982, Sarcoma | Homo sapiens, SW 1116, SW1116, Colon | Homo sapiens, SW1353, SW1353, Sarcoma | Homo sapiens, SW1783, SW1783, glioma | Homo sapiens, U138-MG, U-138MG, glioma | Homo sapiens, U-87 MG, glioma | Homo sapiens, UACC-812, UACC-812, Breast | Homo sapiens, UMUC3, UM-UC-3, Bladder | Homo sapiens, WM-115, WM115, Skin | Homo sapiens, YAPC, Pancreas | Homo sapiens, ZR-75-1, ZR-75-1, Breast | ML-2, AML | NCI-H660, NCI-H660, Prostate | RD, Sarcoma - rhabdomyosarcoma | SCC12, SCC-12, H&N | SCC-13, SCC-13, H&N | T24, Bladder | Y79, Eye
1 to 5 µM: Homo sapiens, SW480, SW480, Colon | Homo sapiens, SW756, SW756, Cervix | Homo sapiens, SW872, SW872, Sarcoma | Homo sapiens, SW1088, SW1088, glioma | Homo sapiens, SW1990, SW1990, Pancreas | Homo sapiens, SW-620, SW620, Colon | Homo sapiens, SiHa, Cervix | Homo sapiens, T47D, T-47D, Breast | Homo sapiens, THP-1, THP-1, AML | Homo sapiens, TK-10, TK-10, Kidney | Homo sapiens, U2OS, U-2OS, Sarcoma | Homo sapiens, U-251, U251, glioma | Homo sapiens, UACC-62, UACC-62, Skin | Homo sapiens, UACC-257, UACC-257, Skin | Homo sapiens, UO-31, UO-31, Kidney | J82, Bladder | JAR, Placenta | KHOS-240S, Sarcoma | KLE, Uterus | KPL-1, KPL-1, Breast | M14, Skin | MC-CAR, #N/A | MX-1, Breast | NALM-1, CML blast phase | RL, lymphoma - non-Hodgkin | SCLC-3, Lung | SH-4, Skin | SKO-007, SKO-007, Myeloma | SR, lymphoma - large cell immunoblastic | SW579, SW579, Thyroid | T-cell, MJ, lymphoma - cutaneous T cell | TO 175.T, TO175.T, Skin | U266B1, Myeloma
< 1 µM: Homo sapiens, SW48, SW48, Colon | Homo sapiens, SW 954, SW954, Vulva | Homo sapiens, SW 962, SW962, Vulva | Homo sapiens, SW1417, SW1417, Colon | Homo sapiens, SW1463, SW1463, Rectum | Homo sapiens, SW-403, SW403, Colon | MT-3, Breast | NCI-H322, NCI-H322, Lung | RD-ES, Sarcoma | TE 381.T, TE381.T, Sarcoma - rhabdomyosarcoma
